Conditions: Liquid, Bellows volumetry

N [ammonia]
mass density [kg/m3]
Conditions	450 K	500 K
30000 kPa	355.3	–
40000 kPa	403.7	–
50000 kPa	433.4	350.9
60000 kPa	455.2	384.9
70000 kPa	472.6	410.1
80000 kPa	487.4	430.2
90000 kPa	500.2	446.9
100000 kPa	511.7	461.5
120000 kPa	531.4	485.8
140000 kPa	548.2	505.9
160000 kPa	563.1	523.1
180000 kPa	576.3	538.3
200000 kPa	588.2	551.9

From the NIST ThermoML archive (doi:10.1016/j.jct.2008.06.009)
